In ChEMBL document CHEMBL3507680, “University of Dundee, Gates Library screen for HepG2 cell viability” one finds cytotoxicity data, which are given here for 102 compounds.

This series is described as follows: Human HepG2 cell viability assay in 384 well format. Type of series: toxicity, cell-based. Also on record: dose 125 nL, time 70.5 hour; cytotoxicity at 70.5 h: concentration not given beside the values. The settings on record: HepG2 cells, read-out: Inhibition.
For `O=S(=O)(CCCN1CCCCC1Cn1cncn1)c1ccccc1` (configuration not stated), the cytotoxicity at 70.5 h was -4.13%.
As to `Cc1ccc(CN(C)C(=O)CN2CCOC(Cn3cccn3)C2)o1` (configuration not stated), the cytotoxicity at 70.5 h was -3.39%.
To `NC(=O)CN1CCC(NC(=O)COc2ccc(Cl)c(Cl)c2)CC1` belongs -2.35%; to `CS(=O)(=O)N1CCC(NC(=O)COc2ccc3ccccc3c2)CC1`, -1.61%; to `O=C(CCOc1ccc(Br)cc1)N1CCN(c2cnccn2)CC1`, 24.8%.
On to `Cc1cc(C(=O)NCC(C)N2CCc3ccccc32)on1` (configuration not stated), for which the cytotoxicity at 70.5 h came out at 7.49%.
As to `CC(C)NC(=O)Nc1ccc(CNCc2ccc(OC(F)F)cc2)cc1`, the cytotoxicity at 70.5 h was 13.8%.
To `CCOc1ncccc1NC(=O)NC1CCN(c2ncccn2)CC1` belongs 2.59%.
To `COC(=O)c1cccn1C1CCN(S(=O)(=O)c2ccccc2)CC1` belongs 3.76%; to `O=C(CCOc1cccc(Cl)c1)N1CCN(c2cnccn2)CC1`, 22%.
To `CC(CNC(=O)c1cc(C2CC2)on1)N1CCc2ccccc21` (configuration not stated) belongs 2.16%; to `CCOC(=O)N1CCC(NC(=O)Nc2cccnc2OCC)CC1`, 6.34%.
In the case of `CCOc1ncccc1NC(=O)NC1CCN(C(=O)C2CC2)CC1`, the cytotoxicity at 70.5 h was found to be 3.99%.
Turning to `CCOc1ncccc1NC(=O)NC1CCCN(S(C)(=O)=O)C1` (configuration not stated), the cytotoxicity at 70.5 h is -0.949%.
As for `CN(Cc1ccsc1)C(=O)CN1CCOC(Cn2cncn2)C1` (configuration not stated), the cytotoxicity at 70.5 h was -1.49%.
Regarding `Cc1cnn(CC2CCCN2C(=O)c2c(F)cccc2Cl)c1` (configuration not stated), the cytotoxicity at 70.5 h turned out to be 0.266%.
Turning to `COc1c(C2CCCN2C(=O)c2cccnc2N(C)C)c(C)nn1C` (configuration not stated), the cytotoxicity at 70.5 h was determined as 0.616%.
With `COC(=O)c1cccn1C1CCN(CCN2C(=O)CCC2=O)CC1`, the cytotoxicity at 70.5 h was -5.66%.
For the compound `O=S(=O)(CCN1CCCC1Cn1cncn1)c1ccccc1` (configuration not stated), the cytotoxicity at 70.5 h is -1.96%.
In the case of `CN(CC(=O)N1CCCCC1c1nccs1)C1CC1` (configuration not stated), the cytotoxicity at 70.5 h is 28.5%.
Take `Cc1nn(Cc2ccccc2)c(C)c1CNC1CCc2ncnn2C1` (configuration not stated): the cytotoxicity at 70.5 h came to 0.852%.
In the case of `Cc1nn(C)c(C)c1C1CCCN1Cc1nc2ccccc2o1` (configuration not stated), the cytotoxicity at 70.5 h is -4.38%.
To `c1ccc(-n2cc(CNC3CCc4ncnn4C3)cn2)cc1` (configuration not stated) belongs -4.52%; to `Clc1ccccc1Cn1cc(CNC2CCc3ncnn3C2)cn1` (configuration not stated), -0.86%.
To `CCc1nccn1C1CCCN(C(=O)CCCc2ccccn2)C1` (configuration not stated) belongs -2.48%; to `CC(=O)N(Cc1noc(C)n1)C1CCN(Cc2ccccn2)C1` (configuration not stated), -8.37%.
To `O=C(Cc1cn2ccccc2n1)N1CCCC(n2ccnc2)C1` (configuration not stated) belongs -3.99%; to `O=C(NCc1nnc2n1CCCCC2)N1CCc2ccccc2C1`, 1.11%.
As for `O=C(NCc1nnc2n1CCC2)N1CCc2sccc2C1`, the cytotoxicity at 70.5 h is -6.3%.
In the case of `O=C(NCc1nnc2n1CCCC2)N1CCc2sccc2C1`, the cytotoxicity at 70.5 h was -4.27%.
To `COc1c(CNCc2cccc(C(=O)N(C)C)c2)c(C)nn1C` belongs 5.09%; to `CC(NC(=O)NCCc1ccc(Cl)s1)c1ccccn1` (configuration not stated), -2.15%.
For `COc1c(CNCc2ccc(S(C)(=O)=O)cc2)c(C)nn1C`, the cytotoxicity at 70.5 h was 0.0381%.
To `CC(C)c1nccn1C1CCCN(C(=O)c2cc(C(N)=O)cs2)C1` (configuration not stated) belongs 2.06%; to `NS(=O)(=O)c1cc(C(=O)N2CCCC(n3ccnc3)C2)cs1` (configuration not stated), -3.09%.
To `Cc1ccc(CNc2cc(N3CCCC3CO)ncn2)s1` (configuration not stated) belongs -0.592%; to `Cc1nc(C)n(C2CCCN(C(=O)Cc3cn4ccccc4n3)C2)n1` (configuration not stated), 1.25%.
To `Cc1c(C(=O)N2CCCC(n3cncn3)C2)cnn1C` (configuration not stated) belongs 3.32%; to `CC(C)(C)c1n[nH]c(C2CN(CCc3cccs3)CCO2)n1` (configuration not stated), 3.37%.
As for `CC(=O)N(Cc1noc(C)n1)C1CCN(Cc2c(C)noc2C)C1` (configuration not stated), the cytotoxicity at 70.5 h was -0.736%.
To `CCc1nccn1C1CCCN(C(=O)Cc2cn3ccsc3n2)C1` (configuration not stated) belongs -11.7%.
To `CN(C)CCC1CCN(Cc2ccn(C)c(=O)c2)CC1` belongs -4.16%.
To `O=C(NCc1csc(Br)c1)c1cnccn1` belongs -13.5%.
As to `CNS(=O)(=O)c1cccc(CNC(=O)c2cc(C)no2)c1`, the cytotoxicity at 70.5 h was 15.5%.
Consider `CCc1ccc(C(=O)NCc2cccc(S(=O)(=O)NC)c2)o1`, for which the cytotoxicity at 70.5 h is -0.952%.
As for `Cc1ccc(F)c(S(=O)(=O)NCc2cccc(C(=O)N3CCCC3)c2)c1`, the cytotoxicity at 70.5 h is 16.3%.
Take `Cn1ccc(CN2CCC(Cc3ccccc3)CC2)cc1=O`: the cytotoxicity at 70.5 h was 0.151%.
To `Cn1ccc(CN2CCC(CC(=O)N3CCCC3)CC2)cc1=O` belongs -6.85%; to `Cc1cnn(C2CCCN(C(=O)CCCOc3ccccc3F)C2)c1` (configuration not stated), -5.78%.
To `Cc1cnn(C2CCCN(C(=O)c3cn(-c4ccccc4)nn3)C2)c1` (configuration not stated) belongs -6.41%; to `COc1ccc(F)cc1CN1CCCC1Cn1nc(C)nc1C` (configuration not stated), -1.67%.
To `Cc1cnn(CC2CCCN2C(=O)c2ccc3[nH]c(=O)[nH]c3c2)c1` (configuration not stated) belongs -1.55%.
Take `Cc1cc(C)n(CC2CCCN2C(=O)c2cnc3n[nH]c(C)c3c2)n1` (configuration not stated): the cytotoxicity at 70.5 h is 1.22%.
On to `Cc1nc(C2CCCN(C(=O)c3cnn(C4CCCCC4)c3)C2)no1` (configuration not stated), for which the cytotoxicity at 70.5 h was -1.22%.
To `Cc1ccc(N2CCCC(NCc3cc(C)on3)C2)nn1` (configuration not stated) belongs -3.47%.
To `O=C(COC1CCCCC1)N1CCCC(n2ccnc2)C1` (configuration not stated) belongs -6.58%.
For the compound `O=C(CCOc1cccc(F)c1)N1CCCC(n2cccn2)C1` (configuration not stated), the cytotoxicity at 70.5 h is -2.03%.
For the compound `O=C(COc1ccccc1Cl)N1CCCC(n2ccnc2)C1` (configuration not stated), the cytotoxicity at 70.5 h was -2.83%.
To `CSCCC(=O)N1CCCC(n2ccnc2)C1` (configuration not stated) belongs -6.36%; to `O=C(COCCOc1ccccc1)N1CCCC(n2ccnc2)C1` (configuration not stated), -4.49%.
To `Cc1cnn(CC2CCCCN2Cc2nccn2CC(F)(F)F)c1` (configuration not stated) belongs 4.47%.
On to `CCc1n[nH]c(C2CN(C(=O)c3ccnc(N(C)C)c3)CCO2)n1` (configuration not stated), for which the cytotoxicity at 70.5 h is 20.1%.
As to `COc1ccc(C)cc1CC(=O)N1CCN(CC(C)O)CC1` (configuration not stated), the cytotoxicity at 70.5 h was -5.05%.
To `Cn1ccc(C(=O)NCc2cccc(NC(=O)C3CCC3)c2)cc1=O` belongs -13.3%; to `CC(C)OCCN(C)C(C)c1cccc(S(N)(=O)=O)c1` (configuration not stated), 22.5%.
On to `Cn1cc(-c2nc(CN3CCc4c(ncn4C4CC4)C3)cs2)cn1`, for which the cytotoxicity at 70.5 h is -15.2%.
For `c1ccc(CCNC2CCc3ncnn3C2)nc1` (configuration not stated), the cytotoxicity at 70.5 h turned out to be 3.59%.
As for `CC(C)c1nc(CN(C)C2CCN(CCNS(C)(=O)=O)C2)no1` (configuration not stated), the cytotoxicity at 70.5 h came out at 32.3%.
To `Cc1ccc(OCCC(=O)N2CCN(c3cnccn3)CC2)cc1C` belongs -4.94%.
To `O=C(CCOc1ccc(Cl)cc1)N1CCN(c2cnccn2)CC1` belongs -11.5%.
To `CC(C)c1cc(NC(=O)CN2CCC(N3CCCCC3)CC2)on1` belongs -1.37%; to `CCOc1ncccc1NC(=O)NC1CCCN(c2ncccn2)C1` (configuration not stated), -2.86%.
As for `CCn1cc(NC(=O)NCc2ccc(CN3CCOCC3)cc2)cn1`, the cytotoxicity at 70.5 h is -6.5%.
To `OC(COc1ccc(F)cc1)CN1CCC(Cn2cccn2)CC1` (configuration not stated) belongs 10.3%.
To `CN(Cc1ccsc1)C(=O)CN1CCOC(Cn2cccn2)C1` (configuration not stated) belongs 29%; to `NC(=O)c1cc(NC(=O)NCCc2cc(F)cc(F)c2)ccc1F`, 10.2%.
To `Cc1ccc(-c2cc(CN3CCCC(Cn4cncn4)C3)on2)cc1` (configuration not stated) belongs 27.6%; to `O=S(=O)(CCCN1CCCC1Cn1cccn1)c1ccccc1` (configuration not stated), -11.1%; to `CCn1cc(NC(=O)CCc2ccc3c(c2)OCCCO3)cn1`, 10.1%.
Regarding `CCS(=O)(=O)CCN1CCC(N(C)Cc2noc(C(C)C)n2)C1` (configuration not stated), the cytotoxicity at 70.5 h was -5.52%.
To `COc1ccccc1OCC(=O)NS(=O)(=O)c1ccc(C)s1` belongs -4.78%; to `Cc1ccc(-c2nc(CN3CCCC(Cn4cncn4)C3)no2)cc1` (configuration not stated), 27.5%; to `CCCc1nc(C)c(C(=O)NCCN2CCN(CC)CC2)s1`, -5.5%.
To `CN(C)c1cc(C(=O)N2CCCN(Cc3cscn3)CC2)ccn1` belongs -8.49%; to `CCC(O)CN1CCN(C(=O)c2sccc2OC)CC1` (configuration not stated), 0.647%; to `O=S(=O)(NCCN1CCCCC1Cn1cncn1)c1ccccc1` (configuration not stated), -3.24%.
To `CCN(Cc1cccc2c1OCO2)C(=O)C(C)c1cccnc1` (configuration not stated) belongs 1.7%; to `Cc1cc(CN(C)C(=O)NCC(C)N2CCc3ccccc32)no1` (configuration not stated), -2.66%.
Take `CN(Cc1cccc(F)c1)C(=O)CN1CCOC(Cn2cccn2)C1` (configuration not stated): the cytotoxicity at 70.5 h was -2.5%.
To `CC(=O)N1CCN(C(=O)CN2CCc3c(ncn3C3CC3)C2)CC1` belongs 6.66%.
On to `OCC1CCCN1c1cc(NCc2ccc(Cl)s2)ncn1` (configuration not stated), for which the cytotoxicity at 70.5 h is -2.35%.
To `CC(=O)N(Cc1noc(C)n1)C1CCN(Cc2ccon2)C1` (configuration not stated) belongs 37.1%; to `O=C(NCc1csc(Br)c1)c1ccncc1`, -16.8%; to `CC(C)c1nnc(NC(=O)NCc2ccnc(N(C)C)c2)s1`, -19.1%.
To `Cc1cnn(C2CCCN(C(=O)Cc3cn4ccccc4n3)C2)c1` (configuration not stated) belongs -12.4%.
Regarding `Cn1ccc(CN2CCC(CO)CC2)cc1=O`, the cytotoxicity at 70.5 h was -9.02%.
To `Cc1cn2nc(N3CCCC3Cn3nc(C)cc3C)sc2n1` (configuration not stated) belongs -7.66%.
For the compound `Cc1nn(C)c(C)c1C1CCCN1Cc1nc(C)c2ccccc2n1` (configuration not stated), the cytotoxicity at 70.5 h came to 5.7%.
Consider `O=C(CN1CCc2c(ncn2C2CC2)C1)NC1CC1`, for which the cytotoxicity at 70.5 h was -23.8%.
To `CCc1n[nH]c(C2CN(C(=O)CCc3cccs3)CCO2)n1` (configuration not stated) belongs 13.9%; to `Cc1ncc(CN(C)CC2CCCN2c2cccnn2)s1` (configuration not stated), 8.83%; to `c1cnnc(N2CCCC2CNCc2cnc(N3CCCC3)nc2)c1` (configuration not stated), -7.83%.
